Laboratory results: publication PMC4394546, “Discovery of Benzo[f]indole-4,9-dione Derivatives as New Types of Anti-Inflammatory Agents” (International Journal of Molecular Sciences, 2015)

What was measured:
[1] = In vitro cytotoxicity against MCF7 cells; format: cell-based; settings: human, MCF7 breast cancer cells; 4 μg/mL; read-out: Cytotoxicity (% survival rate), MCF7
Description: (§1) These benzo[f]indole-4,9-dione derivatives were evaluated in vitro against a panel of cell lines consisting of MCF7 (breast), NCI-H460 (lung), and SF-268 (CNS) as described previously. […] Results from Table 2 indicated compounds 15 and 16 were cytotoxic and their IC50 against three cancer cells and a normal cell, Detroit 551, were shown in Table 3.

[2] = In vitro cytotoxicity against SF-268 cells; format: cell-based; settings: human, SF-268 CNS cancer cells; 4 μg/mL; read-out: Cytotoxicity (% survival rate), SF-268
Description: as §1

[3] = system: fMLF-activated human neutrophils; assay: Neutrophil elastase release in fMLF-activated human neutrophils; format: cell-based; settings: for IC50: Homo sapiens, Neutrophil, fMLF-activated human neutrophils, mean ± SEM (n = 3), read-out: Elastase Release (IC50, concentration necessary for 50% inhibition)
Description: (§2) Blood was taken from healthy human donors (20–30 years old) by venipuncture, using a protocol approved by the institutional review board at Chang Gung Memorial Hospital. Neutrophils were isolated with a standard method of dextran sedimentation prior to centrifugation in a Ficoll Hypaque gradient and hypotonic lysis of erythrocytes.
(§3) Superoxide generation and elastase release were carried out according to the procedures described previously. Neutrophils (6 × 10^5/mL) were equilibrated at 37 °C for 2 min and incubated with compounds for 5 min. Neutrophils were then activated by fMLF (100 nM) in the pretreatment of cytochalasin B (1 μg/mL for superoxide generation and 0.5 μg/mL for elastase release) for 10 min. Superoxide anion production was assayed by monitoring the superoxide dismutase-inhibitable reduction of ferricytochrome c. Elastase release was performed using MeO-Suc-Ala-Ala-Pro-Valp-nitroanilide as the elastase substrate.

[4] = system: fMLF-activated human neutrophils; assay: Superoxide anion generation in fMLF-activated human neutrophils (ferricytochrome c reduction); format: cell-based; settings: Neutrophil, mean ± SEM (n = 3), read-out: Superoxide Anion (IC50, concentration necessary for 50% inhibition)
Description: as §2, §3

[5] = In vitro cytotoxicity against NCI-H460 cells; format: cell-based; settings: human, NCI-H460 lung cancer cells; 4 μg/mL; read-out: Cytotoxicity (% survival rate), NCI-H460
Description: as §1

MCF7 (breast) = assay: In vitro cytotoxicity against MCF7 cells; format: cell-based; settings: Homo sapiens, MCF7; mean ± standard deviation, three experiments
Description: as §1

SF-268 (CNS) = assay: In vitro cytotoxicity against SF-268 cells; format: cell-based; settings: Homo sapiens, SF-268; mean ± standard deviation, three experiments
Description: as §1

Detroit 551 = assay: In vitro cytotoxicity against normal cell Detroit 551; format: cell-based; settings: Homo sapiens, mean ± standard deviation, three experiments
Description: as §1

NCI-H460 (lung) = assay: In vitro cytotoxicity against NCI-H460 cells; format: cell-based; settings: Homo sapiens, NCI-H460; mean ± standard deviation, three experiments
Description: as §1

[Ca^2+]i = fMLF-induced intracellular calcium mobilization in human neutrophils (fluo-3 AM); format: cell-based; settings: Figure 3
Description: as §2
Neutrophils were loaded with fluo-3 AM (2 μM) at 37 °C for 45 min. Cells were preincubated with compounds for 5 min, and then activated by fMLF (100 nM). The change in fluorescence was monitored using a Hitachi F-4500 spectrofluorometer (Tokyo, Japan). The excitation wavelength was 488 nm, and the emission wavelength was 520 nm.

Src (Src family Y416) = assay: Western analysis of fMLF-induced Src phosphorylation in human neutrophils; format: cell-based; settings: fMLF-activated human neutrophils; Figure 2A
Description: as §2
(§4) Neutrophils were pretreated with compounds for 5 min before being stimulated with fMLF at 37 °C. The reaction was stopped by adding 5 × Laemmli’s sample buffer. Proteins derived from whole-cell lysates were separated by SDS-polyacrylamide gel electrophoresis (PAGE) using polyacrylamide gels and blotted onto nitrocellulose membranes. Immunoblotting was performed using the indicated antibodies and horseradish peroxidase (HRP)-conjugated secondary anti-rabbit antibodies (Cell Signaling Technology, Beverly, MA, USA). The immunoreactive bands were visualized by an enhanced chemiluminescence system (Amersham Biosciences, Bucks, UK) and detected by Ultraviolet Product (UVP) imaging system (Upland, CA, USA).

human neutrophils = assay: Cytotoxicity in human neutrophils by lactate dehydrogenase (LDH) release; format: cell-based
Description: The action mechanisms of 10 in human neutrophils were further investigated. Human neutrophil activations, such as respiratory burst and degranulation, are regulated by Akt and calcium signal pathways. Therefore, calcuim and Akt are considered as therapeutic target for developing anti-inflammatory agents.
as §2

Akt (S473) = assay: Western analysis of fMLF-induced Akt phosphorylation in human neutrophils; format: cell-based; settings: fMLF-activated human neutrophils; Figure 2B
Description: as §2, §4

K562 cell = system: K562 cell; parameters: method as in PMID 20591678; settings: read-out: IC50 against the growth of K562 cell; cited from earlier work
alveolar macrophages [6] = system: alveolar macrophages; parameters: method as in PMID 10188987; settings: cited from earlier work
alveolar macrophages [7] = system: alveolar macrophages; parameters: method as in PMID 10188987; settings: cited from earlier work; remark: listed apart in the source
[8] = system: superoxide anion generation; parameters: method as in PMID 22510297; settings: cited from earlier work
[9] = system: LPS-induced PGE2 production; parameters: method as in PMID 22161217; settings: read-out: Inhibition of LPS-induced PGE2 production, IC50; cited from earlier work
[10] = system: LPS-induced Raw 264.7 cells; parameters: method as in PMID 23232148; settings: cited from earlier work
[11] = system: LPS-induced Raw 264.7 cells; parameters: method as in PMID 23232148; settings: cited from earlier work; remark: listed apart in the source

## CC(=NO)c1c2c(n(Cc3ccccc3)c1C)C(=O)c1ccccc1C2=O [Compound 13, 1-Benzyl-3-[1-(hydroxyimino)ethyl]-2-methyl-1H-benzo[f]indole-4,9-dione]
[1]
  viability at 4 μg/mL: 106%
[2]
  viability at 4 μg/mL: 109%
[3]
  IC50: 14.7 ± 2.44 µM
[4]
  IC50: 10.5 ± 0.52 µM
[5]
  viability at 4 μg/mL: 111%
other
  melting point: 204 to 205 °C

## CON=C(C)c1c2c(n(Cc3ccccc3)c1C)C(=O)c1ccccc1C2=O [Compound 14, 1-Benzyl-3-[1-(methoxyimino)ethyl]-2-methyl-1H-benzo[f]indole-4,9-dione]
[1]
  viability at 4 μg/mL: 104%
[2]
  viability at 4 μg/mL: 112%
[3]
  IC50: > 30 µM
[4]
  IC50: > 30 µM
[5]
  viability at 4 μg/mL: 108%
other
  melting point: 168 to 169 °C

## CC[C@@]1(O)C(=O)OCc2c1cc1n(c2=O)Cc2cc3ccccc3nc2-1 [CPT, camptothecin, reference compound]
[1]
  viability at 4 μg/mL: 33%
MCF7 (breast)
  IC50: 0.57 ± 0.03 µM
[2]
  viability at 4 μg/mL: 25%
SF-268 (CNS)
  IC50: 0.19 ± 0.006 µM
Detroit 551
  IC50: 0.99 ± 0.09 µM
[5]
  viability at 4 μg/mL: 1%
NCI-H460 (lung)
  IC50: 0.03 ± 0.003 µM

## CC(=O)c1c2c(n(Cc3ccccc3)c1C)C(=O)c1ccccc1C2=O [Compound 12, 3-Acetyl-1-benzyl-2-methyl-1H-benzo[f]indole-4,9-dione]
[1]
  viability at 4 μg/mL: 78%
[2]
  viability at 4 μg/mL: 115%
[3]
  IC50: > 30 µM
[4]
  IC50: > 30 µM
[5]
  viability at 4 μg/mL: 88%
other
  melting point: 135 to 136 °C

## O=c1cc(N2CCOCC2)oc2c(-c3ccccc3)cccc12 [LY294002, reference compound]
[3]
  IC50: 2.21 ± 0.45 µM
[4]
  IC50: 1.36 ± 0.33 µM

## O=C1c2ccccc2/C(=N/O)c2ccn(Cc3ccccc3)c21 [Compound 10, (Z)-1-Benzyl-4-(hydroxyimino)-1H-benzo[f]indol-9(4H)-one]
[1]
  viability at 4 μg/mL: 110%
[Ca^2+]i
  fMLF-induced mobilization of [Ca^2+]i: inhibited
Src (Src family Y416)
  fMLF-induced phosphorylation of Src (Src family Y416): did not alter
[2]
  viability at 4 μg/mL: 106%
[3]
  IC50: 2.78 µM
Human neutrophils; 30 μM, data not shown
  Cytotoxicity in human neutrophils (LDH release): showed no cytotoxicity effects
[4]
  IC50: 2.74 µM
Akt (S473)
  fMLF-induced phosphorylation of Akt (S473): inhibited
[5]
  viability at 4 μg/mL: 110%
other
  melting point: 202 to 203 °C

## Cc1cc2c(n1Cc1ccccc1)C(=O)c1ccccc1C2=NO [Compound 11, 1-Benzyl-4-(hydroxyimino)-2-methyl-1H-benzo[f]indol-9(4H)-one]
[1]
  viability at 4 μg/mL: 104%
[2]
  viability at 4 μg/mL: 102%
[3]
  IC50: > 30 µM
[4]
  IC50: 7.47 ± 1.39 µM
[5]
  viability at 4 μg/mL: 110%
other
  melting point: 259 to 260 °C

## O=C1c2ccccc2/C(=N/O)c2ccoc21 [Compound 5, (Z)-4-(hydroxyimino)naphtho[2,3-b]furan-9(4H)-one]
K562 cell
  IC50: 0.82 µM

## CC1(C)CCC2=C(O1)c1ccccc1C(=O)C2=O [β-LAPA, β-lapachone]
Alveolar macrophages [6]
  Inhibition of expression of PGE2: able to inhibit
Alveolar macrophages [7]
  Inhibition of expression of nitric oxide (NO): able to inhibit

## O=C1c2ccccc2C(=O)c2c1ccn2Cc1ccccc1 [Compound 8, 1-Benzyl-1H-benzo[f]indole-4,9-dione]
[1]
  viability at 4 μg/mL: 99%
[2]
  viability at 4 μg/mL: 103%
[3]
  IC50: > 30 µM
[4]
  IC50: 16.1 ± 1.87 µM
[5]
  viability at 4 μg/mL: 96%
other
  melting point: 173 to 174 °C

## CCN(CC)CCNC(=O)c1ccc(/N=C2/c3ccccc3C(=O)c3c2ccn3Cc2ccccc2)cc1 [Compound 15, (Z)-4-(1-benzyl-9-oxo-1H-benzo[f]indol-4(9H)-ylideneamino)-N-[2-(diethylamino)ethyl]benzamide]
[1]
  viability at 4 μg/mL: 82%
MCF7 (breast)
  IC50: 4.98 ± 0.15 µM
[2]
  viability at 4 μg/mL: 120%
SF-268 (CNS)
  IC50: 27.4 ± 0.39 µM
Human neutrophils; 3, 10 and 30 μM
  Cytotoxicity in human neutrophils (LDH release): showed cytotoxicity effects
Detroit 551
  IC50: 7.68 ± 0.58 µM
[5]
  viability at 4 μg/mL: 31%
NCI-H460 (lung)
  IC50: 3.16 ± 0.13 µM
other
  melting point: 152 to 153 °C

## Cc1cc2c(n1Cc1ccccc1)C(=O)c1ccccc1C2=O [Compound 9, 1-Benzyl-2-methyl-1H-benzo[f]indole-4,9-dione]
[1]
  viability at 4 μg/mL: 105%
[2]
  viability at 4 μg/mL: 106%
[3]
  IC50: > 30 µM
[4]
  IC50: 14 ± 4.4 µM
[5]
  viability at 4 μg/mL: 104%
other
  melting point: 139 to 140 °C

## benzo[a]furo[2,3-c]phenazinecarboxylic acid [Compound 3]
[8]
  Inhibition of superoxide anion generation: strongly inhibited superoxide anion generation

## CCN(CC)CCNC(=O)c1ccc(/N=C2/c3ccccc3C(=O)c3c2cc(C)n3Cc2ccccc2)cc1 [Compound 16, (Z)-4-(1-benzyl-2-methyl-9-oxo-1H-benzo[f]indol-4(9H)-ylideneamino)-N-[2-(diethylamino)ethyl]benzamide]
[1]
  viability at 4 μg/mL: 57%
MCF7 (breast)
  IC50: 4.95 ± 0.21 µM
[2]
  viability at 4 μg/mL: 106%
SF-268 (CNS)
  IC50: 25.8 ± 1.66 µM
[3]; human neutrophils, table dash with footnote b = alone induced elastase release
  Effect of compound alone on elastase release: induced NE release of human neutrophils
[4]
  IC50: 0.52 ± 0.11 µM
Detroit 551
  IC50: 4.78 ± 0.57 µM
[5]
  viability at 4 μg/mL: 18%
NCI-H460 (lung)
  IC50: 3.23 ± 0.34 µM
other
  melting point: 138 to 139 °C

## COc1ccc(-c2nc3c4ccccc4c4occc4c3[nH]2)cc1 [Compound 2, 2-(4-methoxyphenyl)furo[3',2':3,4]naphtho[1,2-d]imidazole]
[9]
  IC50: 0.047 µM

## COc1ccc(OC2=CC(=O)C(=O)c3ccccc32)cc1 [Compound 4, 4-(4-methoxyphenoxy)naphthalene-1,2-dione]
[10]
  Inhibition of NO released: able to inhibit
[11]
  Inhibition of TNF-α released: able to inhibit
